Source: article PMC9354565 (The journal of physical chemistry. B, 2022)
Values joined by “and” are separate entries in the source; they are usually repeats but may differ in a detail not shown here. Identical values can stand only once. Like-named read-outs stand apart in the source and are kept apart here.

How the values were obtained:
[1] = pH measurement of probes in the HTRF assay buffer; assay type: physicochemical; conditions: for pH value of probe in the buffer: 30 mM probe; for pH value of the buffer with BZA: Figure 6C
[2] = reported data, no reference given; cited from earlier work
[3] = solubility observed in the HTRF screening; assay type: physicochemical; conditions: at 10 mM in the HTRF assay
ST2 (Homo sapiens) = ST2 (Homo sapiens) (UniProt Q01638); assay: BLI; conditions: cited from earlier work
[4] = target: T1, recombinant human ST2-Fc-Histag (human, UniProt Q01638 19-328); assay: AlphaScreen or HTRF
T1 sequence (looked up): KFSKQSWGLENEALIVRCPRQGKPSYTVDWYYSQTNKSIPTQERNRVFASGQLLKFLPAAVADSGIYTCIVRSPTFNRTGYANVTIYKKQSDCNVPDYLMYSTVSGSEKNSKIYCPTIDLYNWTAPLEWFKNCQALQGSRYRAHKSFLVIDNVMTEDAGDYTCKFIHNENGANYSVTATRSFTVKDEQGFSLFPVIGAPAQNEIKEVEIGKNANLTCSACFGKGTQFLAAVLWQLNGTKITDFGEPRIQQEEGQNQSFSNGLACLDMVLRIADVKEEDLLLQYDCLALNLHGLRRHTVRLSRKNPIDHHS

[5] = target: T1, recombinant human ST2-Fc-Histag; assay: AlphaScreen or HTRF; remark: listed apart in the source

Which results are given for `NCc1cccnc1` [AMP, 3-(aminomethyl)pyridine]?
pH value of probe in the buffer [1]: 9.4; pKa [2]: 8.34

Which “pH value of the buffer with BZA” value ([1]; 0.12 mM BZA) does the source give for `N=C(N)c1ccccc1` [BZA, benzamidine] here?
The value was 7.5.

What about the “pH value of the buffer with BZA” value ([1]; 3.3 mM BZA) of the same molecule?
Its value is 10.1.

And the “pH value of the buffer with BZA” value ([1]; 30 mM BZA)?
The value was 10.8.

What about the “pH value of probe in the buffer” value [1] of the same molecule?
Its value is 10.5.

For `O=C(O)c1ccc2ccccc2c1O` [Compound 1], which solubility [3] is on record?
The solubility was “poor solubility”.

For `O=C(O)c1cccnc1` [NA, nicotinic acid], which “pH value of probe in the buffer” value [1] is on record?
Its value is 5.1.

Which “pH value of probe in the buffer” value [1] does the source give for `NC(=O)c1cccnc1` [NAM, nicotinamide] here?
Its value is 7.2.

Which “pH value of probe in the buffer” value [1] does the source give for `O=C(O)c1ccccc1O` [SA, salicylic acid] here?
The value was 4.1.

For IL33 (from UniProt O95760), which Kd (ST2 (Homo sapiens)) is on record?
Its Kd is 2.23 nM.

B1: recombinant human IL33, un-biotinylated (ligand)
chain: SITGISPITEYLASLSTYNDQSITFALEDESYEIYVEDLKKDEKKDKVLLSYYESQHPSNESGDGVDGKMLMVTLSPTKDFWLHANNKEHSVELHKCEKPLPDQAFFVLHNMHSNCVSFECKTDPGVFIGVKDNHLALIKVDSSENLCTENILFKLSET
With B1 as the molecule, how does the IC50 [4] read?
The IC50 was 2.25 ± 0.98 nM.

What about the “IC50 of one of two independent measurements” value [4] of the same molecule?
Its value is 2.94 nM and 1.5 nM.

What about the IC50 [5] of the same molecule?
The IC50 was 3.7 ± 0.29 nM.

And the “IC50 of one of two independent measurements” value [5]?
Its value is 3.49 nM and 3.9 nM.
